Assay results: ChEMBL document CHEMBL3885861, “Open TG-GATES”

Species on record: Rattus norvegicus
Assay: Open TG-GATES - Regimen: Daily Repeat
Format: toxicity, organism-based, Sprague-Dawley
Design: regimen Daily Repeat, gender Male, age 6 weeks
Conditions: in vivo, po, 0 mg/kg, route gavage, dose level Control; for APTT / Bas / Eos / Fbg / Hb / Ht / Lym / MCH / MCHC / MCV / Mono / Neu / PT / Plat / RBC / Ret / WBC: tissue Blood; for KIDNEY_L / KIDNEY_R / KIDNEY_TOTAL: tissue Kidney; for LIVER: tissue Liver; for A/G / ALP / ALT / AST / BUN / CRE / Ca / Cl / DBIL / GLC / IP / K / LDH / Na / PL / RALB / TBIL / TC / TG / TP / gamma-GTP: tissue Plasma

With `CCCNC(=O)NS(=O)(=O)c1ccc(Cl)cc1` [CHLORPROPAMIDE] the TERMINAL_BW (72 h, time 3 day) was 215.2 g, the APTT (72 h, time 3 day) was 17.7 s and the Bas (72 h, time 3 day) was 0.2%. For the same molecule, the Eos (72 h, time 3 day) was 1%, the Fbg (72 h, time 3 day) was 289.2 mg/dL and the Hb (72 h, time 3 day) was 13.2 g/dL. It also gave a Ht (72 h, time 3 day) of 40.3%, a Lym (72 h, time 3 day) of 78% and an MCH (72 h, time 3 day) of 21.8 pg. It also gave an MCHC (72 h, time 3 day) of 32.8%, an MCV (72 h, time 3 day) of 66.6 fL and a Mono (72 h, time 3 day) of 4%. For the same molecule, the Neu (72 h, time 3 day) was 16%, the PT (72 h, time 3 day) was 15.4 s and the Plat (72 h, time 3 day) was 120.9 x10_4/uL. For the same molecule, the RBC (72 h, time 3 day) was 605.6 x10_4/ul, the Ret (72 h, time 3 day) was 7.5% and the WBC (72 h, time 3 day) was 84 x10_2/uL. It also gave a KIDNEY_L (72 h, time 3 day) of 0.9 g, a KIDNEY_R (72 h, time 3 day) of 0.9 g and a KIDNEY_TOTAL (72 h, time 3 day) of 1.9 g. The LIVER (72 h, time 3 day) was 10.4 g, the A/G (72 h, time 3 day) was 0.9 and the ALP (72 h, time 3 day) was 1591.4 IU/L. It also gave an ALT (72 h, time 3 day) of 48.2 IU/L, an AST (72 h, time 3 day) of 71.6 IU/L and a BUN (72 h, time 3 day) of 16.8 mg/dL. For the same molecule, the CRE (72 h, time 3 day) was 0.2 mg/dL, the Ca (72 h, time 3 day) was 10.8 mg/dL and the Cl (72 h, time 3 day) was 105 meq/L. For the same molecule, the DBIL (72 h, time 3 day) was 0.01 mg/dL, the GLC (72 h, time 3 day) was 184 mg/dL and the IP (72 h, time 3 day) was 7.3 mg/dL. It also gave a K (72 h, time 3 day) of 4 meq/L, an LDH (72 h, time 3 day) of 95.2 IU/L and a Na (72 h, time 3 day) of 142.2 meq/L. The PL (72 h, time 3 day) was 154.6 mg/dL, the RALB (72 h, time 3 day) was 2.7 g/dL and the TBIL (72 h, time 3 day) was 0.034 mg/dL. It also gave a TC (72 h, time 3 day) of 80.4 mg/dL, a TG (72 h, time 3 day) of 107.2 mg/dL and a TP (72 h, time 3 day) of 5.8 g/dL. For the same molecule, the gamma-GTP (72 h, time 3 day) was 1 IU/L, the TERMINAL_BW ([…], time 7 day) was 251.8 g and the TERMINAL_BW ([…], time 14 day) was 307.1 g. It also gave a TERMINAL_BW ([…], time 28 day) of 390.8 g, an APTT ([…], time 7 day) of 17.6 s and a Bas ([…], time 7 day) of 0.2%. The Eos ([…], time 7 day) was 1%, the Fbg ([…], time 7 day) was 294 mg/dL and the Hb ([…], time 7 day) was 13.7 g/dL. For the same molecule, the Ht ([…], time 7 day) was 40.9%, the Lym ([…], time 7 day) was 76.2% and the MCH ([…], time 7 day) was 21.6 pg. The MCHC ([…], time 7 day) was 33.4%, the MCV ([…], time 7 day) was 64.7 fL and the Mono ([…], time 7 day) was 2.6%. The Neu ([…], time 7 day) was 18.8%, the PT ([…], time 7 day) was 15.5 s and the Plat ([…], time 7 day) was 124.5 x10_4/uL. It also gave an RBC ([…], time 7 day) of 632 x10_4/ul, a Ret ([…], time 7 day) of 6.4% and a WBC ([…], time 7 day) of 98.4 x10_2/uL. It also gave an APTT ([…], time 14 day) of 18.5 s, a Bas ([…], time 14 day) of 0.2% and an Eos ([…], time 14 day) of 1%. It also gave a Fbg ([…], time 14 day) of 274 mg/dL, a Hb ([…], time 14 day) of 14.5 g/dL and a Ht ([…], time 14 day) of 42.8%. The Lym ([…], time 14 day) was 78.4%, the MCH ([…], time 14 day) was 20.6 pg and the MCHC ([…], time 14 day) was 33.8%. For the same molecule, the MCV ([…], time 14 day) was 60.8 fL, the Mono ([…], time 14 day) was 2.4% and the Neu ([…], time 14 day) was 17.4%. It also gave a PT ([…], time 14 day) of 15.2 s, a Plat ([…], time 14 day) of 122.4 x10_4/uL and an RBC ([…], time 14 day) of 703.6 x10_4/ul. It also gave a Ret ([…], time 14 day) of 4.5%, a WBC ([…], time 14 day) of 115.5 x10_2/uL and an APTT ([…], time 28 day) of 20.6 s. For the same molecule, the Bas ([…], time 28 day) was 0.2%, the Eos ([…], time 28 day) was 1.2% and the Fbg ([…], time 28 day) was 259.6 mg/dL. For the same molecule, the Hb ([…], time 28 day) was 14.9 g/dL, the Ht ([…], time 28 day) was 45.3% and the Lym ([…], time 28 day) was 78.8%. For the same molecule, the MCH ([…], time 28 day) was 19 pg, the MCHC ([…], time 28 day) was 32.9% and the MCV ([…], time 28 day) was 57.5 fL. The Mono ([…], time 28 day) was 2%, the Neu ([…], time 28 day) was 17% and the PT ([…], time 28 day) was 16.1 s. For the same molecule, the Plat ([…], time 28 day) was 94.8 x10_4/uL, the RBC ([…], time 28 day) was 787.4 x10_4/ul and the Ret ([…], time 28 day) was 2.2%. It also gave a WBC ([…], time 28 day) of 103.1 x10_2/uL, a KIDNEY_L ([…], time 7 day) of 1.1 g and a KIDNEY_R ([…], time 7 day) of 1.1 g. It also gave a KIDNEY_TOTAL ([…], time 7 day) of 2.2 g, a KIDNEY_L ([…], time 14 day) of 1.2 g and a KIDNEY_R ([…], time 14 day) of 1.2 g. For the same molecule, the KIDNEY_TOTAL ([…], time 14 day) was 2.4 g, the KIDNEY_L ([…], time 28 day) was 1.4 g and the KIDNEY_R ([…], time 28 day) was 1.4 g. It also gave a KIDNEY_TOTAL ([…], time 28 day) of 2.8 g, an LIVER ([…], time 7 day) of 11.6 g and an LIVER ([…], time 14 day) of 13.6 g. For the same molecule, the LIVER ([…], time 28 day) was 14.6 g, the A/G ([…], time 7 day) was 0.8 and the ALP ([…], time 7 day) was 1869.6 IU/L. It also gave an ALT ([…], time 7 day) of 43.2 IU/L, an AST ([…], time 7 day) of 69.4 IU/L and a BUN ([…], time 7 day) of 15.4 mg/dL. The CRE ([…], time 7 day) was 0.2 mg/dL, the Ca ([…], time 7 day) was 10.9 mg/dL and the Cl ([…], time 7 day) was 106 meq/L. The DBIL ([…], time 7 day) was 0.014 mg/dL, the GLC ([…], time 7 day) was 185.6 mg/dL and the IP ([…], time 7 day) was 6.7 mg/dL. It also gave a K ([…], time 7 day) of 4.2 meq/L, an LDH ([…], time 7 day) of 97.4 IU/L and a Na ([…], time 7 day) of 143 meq/L. For the same molecule, the PL ([…], time 7 day) was 154.2 mg/dL, the RALB ([…], time 7 day) was 2.7 g/dL and the TBIL ([…], time 7 day) was 0.036 mg/dL. For the same molecule, the TC ([…], time 7 day) was 82 mg/dL, the TG ([…], time 7 day) was 105.2 mg/dL and the TP ([…], time 7 day) was 5.8 g/dL. For the same molecule, the gamma-GTP ([…], time 7 day) was 1.2 IU/L, the A/G ([…], time 14 day) was 0.8 and the ALP ([…], time 14 day) was 1479.6 IU/L. For the same molecule, the ALT ([…], time 14 day) was 44.6 IU/L, the AST ([…], time 14 day) was 68.6 IU/L and the BUN ([…], time 14 day) was 18.4 mg/dL. The CRE ([…], time 14 day) was 0.2 mg/dL, the Ca ([…], time 14 day) was 10.7 mg/dL and the Cl ([…], time 14 day) was 104.2 meq/L. It also gave a DBIL ([…], time 14 day) of 0.012 mg/dL, a GLC ([…], time 14 day) of 194.6 mg/dL and an IP ([…], time 14 day) of 7.3 mg/dL. It also gave a K ([…], time 14 day) of 4.1 meq/L, an LDH ([…], time 14 day) of 120 IU/L and a Na ([…], time 14 day) of 143.4 meq/L. It also gave a PL ([…], time 14 day) of 164 mg/dL, an RALB ([…], time 14 day) of 2.8 g/dL and a TBIL ([…], time 14 day) of 0.032 mg/dL. It also gave a TC ([…], time 14 day) of 77.8 mg/dL, a TG ([…], time 14 day) of 158.4 mg/dL and a TP ([…], time 14 day) of 6.1 g/dL. For the same molecule, the gamma-GTP ([…], time 14 day) was 1 IU/L, the A/G ([…], time 28 day) was 0.8 and the ALP ([…], time 28 day) was 1207 IU/L. It also gave an ALT ([…], time 28 day) of 40.2 IU/L, an AST ([…], time 28 day) of 66.8 IU/L and a BUN ([…], time 28 day) of 16.2 mg/dL. It also gave a CRE ([…], time 28 day) of 0.2 mg/dL, a Ca ([…], time 28 day) of 10.6 mg/dL and a Cl ([…], time 28 day) of 105.6 meq/L. For the same molecule, the DBIL ([…], time 28 day) was 0.01 mg/dL, the GLC ([…], time 28 day) was 188.8 mg/dL and the IP ([…], time 28 day) was 6.5 mg/dL. It also gave a K ([…], time 28 day) of 3.8 meq/L, an LDH ([…], time 28 day) of 88.4 IU/L and a Na ([…], time 28 day) of 144 meq/L. The PL ([…], time 28 day) was 137.6 mg/dL, the RALB ([…], time 28 day) was 2.7 g/dL and the TBIL ([…], time 28 day) was 0.03 mg/dL. The TC ([…], time 28 day) was 65.8 mg/dL, the TG ([…], time 28 day) was 122.6 mg/dL and the TP ([…], time 28 day) was 6.1 g/dL. The gamma-GTP ([…], time 28 day) was 1 IU/L.
